Tested on: visceral hypersensitivity and bladder dysfunction
Experiment: Nonclinical pharmacology models of visceral hypersensitivity and bladder dysfunction
Type: in vivo
Conditions: doses above 10 μg/kg/day
Experimental: The peptide of the present disclosure doses of 100 μg and 300 μg were selected based on nonclinical pharmacology models of visceral hypersensitivity and bladder dysfunction using the peptide of the present disclosure and another GC-C agonist, linaclotide, with similar activity. […] The human equivalent daily dose (HED) extrapolated from pharmacologically active dose levels in nonclinical models is 180 μg to 600 μg (based on body weight) and 15 μg to 100 μg based on body surface area. Choosing 2 doses for investigation in this study should allow for observation of a dose response.

In the case of “peptide of the present disclosure: GC-C agonist peptide, active pharmaceutical ingredient of the rectal foam composition (CXELCCNVACYGC; not fully specified; SITE 2 X is a homocysteine contributing to a cystathionine unit (linking the homocysteine at residue 2 and cysteine at residue 10 via a thioether bond); DISULFID 1..6 Intrachain; DISULFID 5..13 Intrachain; CROSSLNK 2..10 homocysteine at position 2 and the cysteine at position 10 are connected by an internal sulfide (or thioether bond); SITE 1 Optionally acetylated N-terminus)”, the “benefit at higher doses” value is reported as “diminishing benefit”.
